According to patent US9399631B2, “Polyphenol proteasome inhibitors, synthesis, and methods of use” (UNIVERSITY OF SOUTH FLORIDA, priority 2003, dated 2016):
pIC50: −log10 of the molar value. “Also recorded” adds a separate entry of the source. Like-named read-outs stand apart in the source and are kept apart here.

What was measured:
purified 20S proteasome [1] = test: Inhibition of chymotrypsin-like activity of purified 20S proteasome (source not stated); format: biochemical
Experimental: (§1) Inhibition of purified 20S proteasome activity by natural or synthetic GTPs. Purified prokaryotic (0.5 μg) or eukaryotic (0.02 μg) 20S proteasome was incubated with 20 μM fluorogenic peptide substrate, Suc-Leu-Leu-Val-Tyr-AMC for 30 min at 37° C. in […] of assay buffer (50 mM Tris-HCl, pH 7.5), with or without a natural or synthetic tea polyphenol. After incubation, production of hydrolyzed 7-amido-4-methyl-coumarin (AMC) groups was measured using a multi-well plate VERSAFLUOR Fluorometer with an excitation filter of 380 nm and an emission filter of 460 nm (BIO-RAD), and a multi-well plate reader Wallac 1420 VICTORTM^2 with an excitation filter of 355 nm and an emission filter of 460 nm (EG&G WALLAC).

LNCaP cells [2] = test: Soft agar colony formation assay; format: cell-based, human; conditions: 10 μM, 14 day-incubation
Experimental: Soft Agar Assay. The soft agar assay was performed according to Smith et al. (Smith, D. M. et al. Mol Med, 2002, 8:382-392) with a few modifications. In brief, in a six-well plate, a bottom feeder layer (0.6% agar) was prepared with DMEM media containing 10% fetal bovine serum, 100 units/ml penicillin, and 100 μg/ml streptomycin. A top layer (0.3% agar) was prepared with DMEM and the same media as described above but containing 2×10^4 prostate cancer LNCaP cells and indicated analogs or DMSO as a control. Plates were incubated at 37° C. in 5% CO2 in a humidified incubator for two weeks. MTT (1 mg/ml) was added to each well and incubated overnight to allow complete formation of purple formazan crystals. The plates were then scanned and photographed, and the number of colonies was quantified by QUANTITY ONE v.4.0.3 software (Bio-Rad, Hercules, Calif.).
The […] effects of several GTP analogs were investigated with a soft agar assay that measures the transforming activity of human tumor cells. LNCaP cells were plated in soft agar (see Materials and Methods) along with 50 μM of GTP-1, -2, -3, (−)-EGCG (as a positive control; Smith, D. M. et al. Mol Med, 2002, 8:382-392, 2002), or the solvent (as a negative control), followed by a 14 day-incubation to allow for colony formation (FIGS. 12A and 12B).
In a second experiment, LNCaP cells were plated in soft agar along with 10 μM of each indicated GTP or solvent (H2O), followed by a 14 day-incubation to allow for colony formation (FIG. 21A). […] Colonies were quantified with an automated counter and presented as mean values from triplicate independent experiments. Error bars denote standard deviations.

[3] = tested on: 26S proteasome in a Jurkat cell lysate; test: Chymotrypsin-like activity of 26S proteasome in Jurkat cell lysate; format: biochemical, human; conditions: 10 μM
Experimental: To determine the specificity of the synthetic GTP analogs, their effects were tested on the chymotrypsin-like and trypsin-like activities of the 26S proteasome in a Jurkat cell lysate. […] (+)-GCG at the same concentration inhibited ˜50% of the chymotrypsin-like activity. The potencies of (+)-EGCG and (+)-GCG were similar to those of their natural partners, respectively (FIG. 17A). […] Furthermore, none of the synthetic or control natural compounds could inhibit more than 15% of activity of a purified calpain enzyme (FIG. 17C). […] Values are mean triplicates and error bars denote standard deviations.

purified 20S proteasome [4] = target: purified 20S proteasome (UniProt Q9P992); test: Inhibition of chymotrypsin-like activity of purified 20S proteasome (source not stated); format: biochemical; design: other: 1 μM; other: 10 μM; conditions: 10 μM
Sequence of purified 20S proteasome (UniProt Q9P992) (Q9P992 whole entry): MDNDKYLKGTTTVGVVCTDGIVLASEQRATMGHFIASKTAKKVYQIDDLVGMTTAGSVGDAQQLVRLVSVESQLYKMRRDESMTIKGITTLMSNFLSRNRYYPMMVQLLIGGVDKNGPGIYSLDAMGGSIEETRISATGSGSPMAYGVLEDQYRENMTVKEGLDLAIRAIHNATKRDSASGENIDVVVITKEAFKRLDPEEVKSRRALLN
Experimental: as §1

[5] = target: T1, 20S eukaryotic proteasome (Oryctolagus cuniculus, UniProt G1T4Q9); test: Inhibition of chymotrypsin-like activity of purified eukaryotic 20S proteasome (Suc-Leu-Leu-Val-Tyr-AMC); format: biochemical, rabbit; conditions: chymotrypsin-like activity, rabbit 20S proteasome
T1 construct: purchased BOSTON BIOCHEM (Cambridge, Mass.)
T1 sequence (G1T4Q9 1-263): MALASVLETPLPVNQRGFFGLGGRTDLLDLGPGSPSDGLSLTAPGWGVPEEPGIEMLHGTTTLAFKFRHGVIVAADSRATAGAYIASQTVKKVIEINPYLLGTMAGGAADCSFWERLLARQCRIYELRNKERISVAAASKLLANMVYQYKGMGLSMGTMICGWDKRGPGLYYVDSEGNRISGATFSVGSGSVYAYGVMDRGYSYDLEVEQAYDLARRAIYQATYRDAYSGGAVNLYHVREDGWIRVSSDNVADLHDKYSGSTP
Experimental: Materials. Highly purified tea polyphenols (−)-EGCG (>95%), (−)-GCG (>98%), (−)-ECG (>98%), (−)-CG (>98%), fetal calf serum, propidium iodide, 3-[4,5-dimethylthiazol-2-yl]-2,5-diphenyltetrazolium bromide (MTT), RNase A, and DMSO were purchased from Sigma (St. Louis, Mo.). (+)-EGCG, benzyl-protected-(+)-EGCG, (+)-GCG, (−)-EGCG-amide, and (+)-EGCG-amide were prepared by enantioselective synthesis (see below). Purified 20S eukaryotic proteasome from rabbit was purchased from BOSTON BIOCHEM (Cambridge, Mass.). Purified 20S prokaryotic proteasome (Methanosarcina thermophile, Recombinant, E. coli) was purchased from CALBIOCHEM (La Jolla, Calif.). Fluorogenic peptide substrates Suc-Leu-Leu-Val-Tyr-AMC (for the proteasomal chymotrypsin-like activity) was obtained from Calbiochem (La Jolla, Calif.). RPMI 1640 medium, Dulbecco's modified Eagle's medium, MEM non-essential amino acids solution, MEM-sodium pyruvate solution, penicillin, and streptomycin were from INVITROGEN (Carlsbad, Calif.). Monoclonal antibody to p27^Kip was purchased from PHARMINGEN (San Diego, Calif.); polyclonal antibodies to IκB-α, Bax and actin, and monoclonal antibody to ubiquitin were from SANTA CRUZ Biotechnology Inc. (Santa Cruz, Calif.).
as §1
Purified prokaryotic (0.5 μg) or eukaryotic (0.02 μg) 20S proteasome was incubated with 20 μM fluorogenic peptide substrate, Suc-Leu-Leu-Val-Tyr-AMC for 30 minutes at 37° C. in 100 μl of assay buffer ([…] Tris-HCl, pH 7.5), with or without a natural or synthetic tea polyphenol. After incubation, production of hydrolyzed AMC groups was measured using a multi-well plate VERSAFLUOR Fluorometer with an excitation filter of 380 nm and an emission filter of 460 nm.
(−)-EGCG at 1 μM was incubated with eukaryotic 20S proteasome (0.02 μg) and suc-LLVY-AMC (20 μM) for the times indicated in FIG. 7. The chymotrypsin activity was measured and graphed in FIG. 7. Values are means from 4 independent experiments, and error bars represent standard deviations.
In the second experiment (−)-EGCG at 1 μM was pre-incubated with (SDS-pre) or without 0.01% SDS (no SDS) for 1 hour, followed by addition of eukaryotic 20S proteasome (0.02 μg) and suc-LLVY-AMC (20 μM). “SDS-post” represents the same treatment as “no SDS” except 0.01% SDS was added 1 hour after addition of the proteasome, (−)-EGCG and the substrate. AMC liberation was measured by fluorescence at each indicated time point and the percentage of chymotrypsin activity was determined. Values are means from 4 independent experiments, and error bars represent standard deviations.

LNCaP cells [6] = test: Western blot of proteasome target proteins in LNCaP cells; format: cell-based, human; conditions: 25 μM, up to 9 hours
Experimental: (§2) Cell Culture, Cell Extract Preparation, and Western Blot Assay. Human leukemia Jurkat T and prostate cancer LNCaP cells were cultured in RPMI 1640 medium supplemented with 10% fetal calf serum, 100 units/ml of penicillin, and 100 μg/ml streptomycin. Human immortalized, non-transformed NK cells (YT cell line) (38) were cultured in RPMI 1640 supplemented with 1 mM MEM sodium pyruvate solution, 0.1 mM MEM non-essential amino acids solution, 10% fetal calf serum. 100 units/ml penicillin, and 100 μg/ml streptomycin. Normal (WI-38) and simian virus 40 (SV40)-transformed (VA-13) human fibroblasts were grown in Dulbecco's modified Eagle's medium supplemented with 10% fetal calf serum, 100 units/ml of penicillin and 100 μg/ml of streptomycin. All cells were maintained at 37° C. in a humidified incubator with an atmosphere of 5% CO2. A whole cell extract was prepared in accordance with An et al. (An, B. et al. Cell Death Differ, 1998, 5:1062-75). Briefly, cells were harvested, washed with PBS twice, and homogenized in a lysis buffer [50 mM Tris-HCl (pH 8.0), 5 mM EDTA, 150 mM NaCl, 0.5% NP-40, 0.5 mM phenylmethylsulfonyl fluoride, and 0.5 mM dithiothreitol] for 30 min at 4° C. Afterwards, lysates were centrifuged at 12,000×g for 15 min at 4° C., and the supernatants were collected as whole cell extracts. Equal amounts of protein extract (60 μg) were resolved by SDS-polyacrylamide gel electrophoresis and transferred to a nitrocellulose membrane using a Semi-Dry Transfer system (BIO-RAD, Hercules, Calif.). Jurkat T, LNCaP, or DU-145 cells were treated with various concentrations of synthetic or natural tea polyphenols for indicted hours. The enhanced chemiluminescence (ECL) Western blot analysis was then performed using specific antibodies to the proteins of interest (p^27kip, IκB-α, PARP, Bax or actin). The ratio of p27 or IκB-α to the corresponding actin was determined by scanning intensities of the protein bands.
To investigate whether (−)-EGCG-amide and (+)-EGCG-amide inhibit intact tumor cell proteasome activity, human prostate cancer LNCaP cells were treated with 25 μM of (−)- or (+)-EGCG-amide for up to 9 hours, followed by measurement of p27, IκB-α and Bax, three well-known proteasome target proteins (Pagano, M. et al. Science, 1995, 269:682-685; An, B. et al. Cell Death Differ, 1998, 5:1062-75; Sun, J. et al. Cancer Res, 2001, 61:1280-1284; Palombella, V. J. et al. Cell, 1994, 78:773-785; Thompson, J. E. et al. Cell, 1995, 80:573-582; Perkins, N. D. Trends Biochem Sci, 2000, 25:434-440; Chang, Y. C. et al. Cell Growth Differ, 1998, 9:79-84; Li, B. and Dou, Q. P. Proc Natl Acad Sci USA, 2000, 97:3850-3855; Nam, S. et al. Cancer Epidemiol Biomarkers Prey, 2001, 10:1083-1088). In this experiment (−)-EGCG and (+)-EGCG were used as positive controls.
Having determined that the synthetic GTP-1 to −5 analogs are able to inhibit the proteasomal chymotrypsin-like activity in vitro (FIG. 8), these compounds were investigated for their potency in inhibiting intact tumor cellular proteasome activity. To do so, human prostate cancer LNCaP cells were treated with one of these compounds for the indicated hours, followed by measuring levels of proteasome target proteins, p27, IκB-α, and Bax, and polyubiquitinated proteins.

VA-13 cells = test: Western blot of p27 in SV40-transformed VA-13 fibroblasts; format: cell-based, human; conditions: 25 μM, 12 hours
Experimental: as §2
Normal WI-38 and SV40-transformed VA-13 cell lines were treated with 25 μM of (−)-EGCG, (−)-EGCG-amide, (+)-EGCG, (+)-EGCG-amide, or GTP-1 for either 12 hours or 36 hours.

MCF-7 cells = test: Proteasome inhibition / p27 accumulation in MCF-7 cells; format: cell-based, human

pIC50 [5] | SMILES | inhibition of the proteasome (in words) (purified 20S proteasome [1]) | inhibition of the proteasome (in words) (purified 20S proteasome [1]; listed as benzyl protected-EGCG) | inhibition of colony formation (LNCaP cells [2]) [%] | inhibition of chymotrypsin-like activity of 26S proteasome [3] | inhibition of proteasomal activity (purified 20S proteasome [4]) | levels of p27, IκB-α and Bax (LNCaP cells [6]) | levels of p27 protein (VA-13 cells) | inhibition of proteasome activity / accumulation of p27 (MCF-7 cells)
 | O=C(O[C@H]1Cc2c(OCc3ccccc3)cc(OCc3ccccc3)cc2O[C@H]1c1cc(OCc2ccccc2)c(OCc2ccccc2)c(OCc2ccccc2)c1)c1cc(OCc2ccccc2)c(OCc2ccccc2)c(OCc2ccccc2)c1 [Bn-(+)-EGCG] | can not inhibit the proteasome | cannot inhibit the proteasome; also recorded: fails to inhibit the proteasome | ~10 | could not inhibit the proteasomal chymotrypsin activity at all | did not significantly inhibit |  |  | 
6.39 | O=C(N[C@H]1Cc2c(O)cc(O)cc2O[C@H]1c1cc(O)c(O)c(O)c1)c1cc(O)c(O)c(O)c1 [(+)-EGCG-amide, (+)-[2S, 3S]-N-[5,7-Dihydroxy-2-(3,4,5-trihydroxyphenyl)-chroman-3-yl]-3,4,5-trihydroxybenzamide] |  |  |  |  |  | able to increase levels of p27, IκB-α and Bax by 3 hours | significantly increased levels of p27 protein | able to inhibit the proteasome activity
